From publication PMC6910946, “Multiple roles of Bet v 1 ligands in allergen stabilization and modulation of endosomal protease activity” (Allergy, 2019)
Where two headings read alike, the source gives them in different places.

What was measured:
[1] = molecular target: T1, Bet_v_1 (Betula pendula, UniProt P15494); experiment: Surface acoustic wave (SAW) interaction studies, determination of Kd; type: binding
T1 construct: made in house
T1 sequence (P15494 1-160): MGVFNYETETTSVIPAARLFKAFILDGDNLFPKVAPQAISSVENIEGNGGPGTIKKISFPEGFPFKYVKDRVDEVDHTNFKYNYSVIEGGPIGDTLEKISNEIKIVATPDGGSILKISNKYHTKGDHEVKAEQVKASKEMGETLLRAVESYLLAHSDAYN
Source text: (§1) Surface acoustic wave (SAW) technology and NMR spectroscopy were used to observe the interaction of Bet_v_1 with the selected compounds, including determination of the dissociation constant (K d). The influence of ligand binding on the secondary structure elements and the thermal stability of Bet_v_1 was monitored using circular dichroism (CD, JASCO J‐815 spectropolarimeter, Jasco) and Fourier transform infrared (FTIR) spectroscopy (Tensor II FTIR system, Bruker Optics Inc). A detailed description of these methods is available (Appendix [Link], [Link]).
To assess the interactions between Bet_v_1 and Q3OS, DOC, PPE1, LTA, or LPS, we determined the dissociation constants (K d) using SAW binding assays (Table 1, Figure S1), a more quantitative approach than previously described qualitative assays.11, 25 In addition, the LPS‐substructure Kdo2‐Lipid A (Kdo2) was used for binding studies, due to its more homogenous structure but similar immune stimulatory activity when compared to native LPS.
For the determination of the affinity constant Kd, we used surface acoustic wave (SAW) technology. The interaction of the six ligands with Bet v 1 was investigated using a sam® 5BLUE biosensor instrument (Nanotemper, Munich, Germany). Bet v 1 was immobilized in PBS on the surface of a SAW CM-Dextran 3D sensor chip. […] For calculating the affinity constant Kd, different concentrations of the ligands dissolved in a 5 mM sodium phosphate buffer, pH 7.4, were applied to the Bet v 1-coupled chip. Depending on the ligand, the concentration range of the injected ligand varied between 5 µM and 500 µM. For the removal of residual ligand between the sample injections, the chip was washed with regeneration buffer (10 mM citric acid buffer, pH 2.8). The recorded SAW phase changes were analyzed using the software TraceDrawer 1.7 (Ridgeview Instruments, Uppsala, Sweden). The affinity constant Kd was calculated by kinetic evaluation and affinity/EC50 estimation. For kinetic evaluation, an OneToOne curve fit was chosen to match the raw data. Experiments were performed with two coated chips in duplicate, and the coupling efficiency was evaluated using a mouse monoclonal anti-Bet v 1 antibody.

[2] = molecular target: T2, Bet v 1 / human cathepsin S (Betula pendula, UniProt P15494); experiment: Bet v 1 in vitro proteolytic degradation assay with cathepsin S; type: biochemical; settings: Bet v 1 20 µM, ligand 100 µM, cathepsin S 1 µM, pH 5.0, 0-24 h, SDS-PAGE
T2 construct: made in house
T2 sequence (P15494 2-160 limits assumed): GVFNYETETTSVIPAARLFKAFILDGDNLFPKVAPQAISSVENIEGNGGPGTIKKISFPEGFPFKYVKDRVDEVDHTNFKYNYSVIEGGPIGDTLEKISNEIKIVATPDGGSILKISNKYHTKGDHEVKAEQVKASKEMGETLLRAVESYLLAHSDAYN
Procedure: (§2) The endolysosomal degradation assay was performed with ligand‐bound (either DOC, PPE1, or Q3OS in 10× molar excess) and Bet_v_1 without ligands (apo‐Bet_v_1) as previously described.21 Recombinant human cathepsin S and human legumain were used in proteolytic degradation assays. Experimental details are described in the Appendix [Link], [Link].
(§3) Recombinant human cathepsin S and human legumain were heterologously expressed and purified as described previously.^9,10 Bet v 1 (20 µM) was incubated with ligand (100 µM) in digestion buffer (0.1 M sodium acetate, pH 5.0, 0.1 M sodium chloride, 5 mM EDTA, and 2 mM DTT) at room temperature prior to the addition of cathepsin S (1 µM) or legumain (2 µM). […] At each time point, the reaction was halted by the addition of E64 (for cathepsin S) or YVAD-CMK (for legumain) at a final concentration of 50 µM, and analyzed by SDS-PAGE. Control reactions without the addition of protease were performed. The generated peptides were analyzed using mass spectrometry.

[3] = molecular target: T3, Bet v 1 / human legumain (Betula pendula, UniProt P15494); experiment: Bet v 1 in vitro proteolytic degradation assay with legumain; type: biochemical; settings: Bet v 1 20 µM, ligand 100 µM, legumain 2 µM, pH 5.0, 0-24 h, SDS-PAGE
T3 construct: made in house
T3 sequence (P15494 2-160 limits assumed): T2 sequence (P15494 2-160 limits assumed)
Procedure: as §2, §3

[4] = molecular target: T1, Bet_v_1; settings: read-out: K d of ANS, previously published; cited from earlier work
[5] = molecular target: T1, Bet_v_1; experiment: NMR spectroscopy (1H-15N HSQC) binding confirmation; settings: for NMR (binding confirmation, K d): 15N-labeled Bet v 1, direct measurement of Kd prevented by intermediate exchange; for specific binding to Bet v 1 (1H-15N HSQC spectra): absence vs presence of compound
Source text: as §1
To validate the interactions determined by SAW, we used NMR spectroscopy to test the specific binding of PPE1, LTA, LPS, and Kdo2 to Bet_v_1 (Table 1, Figure S2). […] The commercially available PPA1 was used as a substitute for PPE1 to identify the phytoprostane binding site(s).
The NMR data were acquired with either a 600 or 800 MHz Agilent DD2 spectrometer with a cryogenically cooled probe using the pulse sequence gNhsqc. Bet v 1 assignments were taken from.^2 The experiments were performed under the following conditions: LTA: 45 µM Bet v 1 and 300 µM LTA in PBS, 10% ^2H2O, 60 µM DSS; PPE1: 25 µM Bet v 1 and 2 µM PPE1 in PBS, 5% ^2H-(d6) DMSO, 10% ^2H2O, 60 µM DSS; PPA1: 100 µM Bet v 1 and 302 µM PPA1 (Cayman Chemical, MI, USA) in PBS, 8.7% ^2H-(d6) DMSO, 10% ^2H2O, 60 µM DSS; LPS: 100 µM Bet v 1 and 400 µM LPS in PBS pH 7.4, 10% ^2H2O, 60 µM DSS. Kdo2: 100 µM Bet v 1 and 422 µM Kdo2 in PBS pH 7.0, 10% ^2H2O, 8.6% ^2H-(d6) DMSO, 60 µM DSS.

[6] = molecular target: T4, cathepsin S (Homo sapiens, UniProt P25774); experiment: Enzymatic activity assay, fluorogenic substrate Z-VVR-AMC; type: biochemical
T4 construct: made in house
T4 sequence (P25774 115-331): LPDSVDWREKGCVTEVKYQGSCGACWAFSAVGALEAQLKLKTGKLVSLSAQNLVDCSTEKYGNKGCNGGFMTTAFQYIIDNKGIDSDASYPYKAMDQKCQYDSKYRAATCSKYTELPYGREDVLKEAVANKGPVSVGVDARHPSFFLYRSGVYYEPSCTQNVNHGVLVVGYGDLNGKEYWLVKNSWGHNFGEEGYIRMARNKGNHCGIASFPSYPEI
Procedure: To evaluate the influence of Bet_v_1 ligands on cathepsin S and legumain activities, 10 nmol/L of protease was incubated with 100 µmol/L of ligand (unless otherwise stated) and 50 µmol/L of fluorogenic substrate in digestion buffer (0.1 mol/L sodium acetate pH 5.0, 0.1 mol/L sodium chloride, 5 mmol/L EDTA, and 2 mmol/L DTT), as described in the Appendix [Link], [Link]. The effect of birch pollen extract (BPE) (20‐200 µg/mL) on the cathepsin S and legumain activities was assessed in parallel. The inhibitory effect of PPE1 was assessed by replacing DTT with 0.5 mmol/L TCEP. Activities of recombinant rat cathepsin B (provided by Dr Lukas Mach) and papain (Merck) at 10 nmol/L were assayed using Z‐FR‐AMC (Bachem) as a fluorogenic substrate.
For the detection of cathepsin or legumain activities in the microsomal fraction, 8 µg of microsomal extract was incubated with 50 µM fluorogenic substrate with or without inhibitor in assay buffer (100 mM citrate pH 4.8 and 2 mM DTT). The enzymatic reactions were carried out in a 50 µL reaction volume in a 96-half-well black flat bottom assay plate (Corning Inc., Corning, NY, USA) at 37°C. The fluorescence signal was recorded using a Tecan Infinite-200 plate reader (Tecan, Männedorf, Switzerland) at an excitation wavelength of 380 nm and emission wavelength of 460 nm for 15 min of continuous measurement with a 30-s interval reading. The fluorogenic substrates used for cathepsin S and legumain were Z-VVR-AMC and Z-AAN-AMC (Bachem, Bubendorf, Switzerland), respectively. The inhibitors used for cathepsin S and legumain were Z-FL-COCHO (Sigma-Aldrich, CA, USA) and Ac-YVAD-CMK (Bachem), respectively^11.

[7] = molecular target: T1, Bet_v_1; experiment: LPS pull-down assay; type: binding, Betula verrucosa; settings: LPS immobilized on Strep‐Tactin Sepharose beads
Procedure: To investigate whether Bet v 1 binds LPS, a pull-down assay using biotinylated ultrapure E. coli O111:B4 LPS (InvivoGen, San Diego, CA, USA) was performed as previously described.^3 In short, biotinylated LPS was immobilized on Strep-Tactin Sepharose beads (IBA Lifesciences, Göttingen, Germany) and incubated with Bet v 1 for 20 min at room temperature. Unbound protein was washed off and beads were analyzed by SDS-PAGE. As control, the individual components (Bet v 1, biotinylated LPS and Strep-Tactin Sepharose beads), and Bet v 1+beads to exclude unspecific binding, were analyzed.

[8] = Bet v 1 immobilized on chip, ligands in 5 mM sodium phosphate buffer pH 7.4, read-out: Binding affinity K d (SAW)
[9] = Fig. S1 sensorgrams, read-out: Kd (SAW, Fig. S1)

In the case of `O=S(=O)(O)c1cccc2cccc(Nc3ccccc3)c12` [ANS, 8‐anilinonaphthalene‐1‐sulfonic acid], the Kd ([1]; Binding affinity K d (SAW), Bet v 1 immobilized on chip, ligands in 5 mM sodium phosphate buffer pH 7.4) is reported as 32.7 µM, the Kd ([1]; Kd (SAW, Fig. S1), Fig. S1 sensorgrams) is reported as 32.7 µM and the “processing (degradation) of Bet v 1 by cathepsin S” value (“processing … by cathepsin S” for short) [2] is reported as “no detectable”. For the same molecule, the “processing (degradation) of Bet v 1 by legumain” value (from here on “processing … by legumain”) [3] was “no detectable” and the Kd [4] was 18.5 µM.
For `CCCCCCCCCCCCCC(=O)O[C@H](CCCCCCCCCCC)CC(=O)O[C@@H]1[C@@H](NC(=O)C[C@@H](CCCCCCCCCCC)OC(=O)CCCCCCCCCCC)[C@H](OC[C@H]2O[C@H](OP(=O)(O)O)[C@H](NC(=O)C[C@H](O)CCCCCCCCCCC)[C@@H](OC(=O)C[C@H](O)CCCCCCCCCCC)[C@@H]2O)O[C@H](CO[C@]2(C(=O)O)C[C@@H](O[C@]3(C(=O)O)C[C@@H](O)[C@@H](O)[C@@H]([C@H](O)CO)O3)[C@@H](O)[C@@H]([C@H](O)CO)O2)[C@H]1OP(=O)(O)O` [Kdo2, Kdo2‐Lipid A], the “NMR (binding confirmation, K d)” value [5] was “No significant interactions”, the “specific binding to Bet v 1 (1H-15N HSQC spectra)” value (shortened to “specific binding”) [5] was “No significant interactions” and the Kd [1, 8] was 380 µM. It also gave a Kd [1, 9] of 380 µM.
In the case of `O=C1C[C@@H](c2ccc(O)cc2)Oc2cc(O)cc(O)c21` [Naringenin, naringenin], the “processing … by cathepsin S” value [2] is reported as “minor” and the “processing … by legumain” value [3] is reported as “minor”.
With `CCC(O)/C=C/C1C(O)CC(O)C1CCCCCCCC(=O)O` (stereo not shown) [PPF1, F1‐phytoprostanes] the Kd [1, 8] was 2.4 µM and the “cathepsin S activity with phytohormones structurally related to PPE1” value ([6]; 0.1 mmol/L, 15 min (Figure 4B)) was “did not inhibit”.
With `CCCCCCCCCCCCOS(=O)(=O)[O-].[Na+]` [SDS, sodium dodecyl sulfate] the “processing … by cathepsin S” value [2] was “significantly accelerated”, the “processing … by legumain” value [3] was “significantly accelerated” and the “cathepsin S fluorogenic activity” value ([6]; 10 nmol/L protease, 100 µmol/L ligand, 50 µmol/L substrate, pH 5.0, 2 mmol/L DTT (Figure 3A)) was “reduced the cleavage of fluorogenic substrates”.
For lipopolysaccharide [LPS], the “binding of Bet v 1 to biotinylated LPS (pull-down)” value [7] was “do not specifically bind”, the “NMR (binding confirmation, K d)” value [5] was “No significant interactions” and the “specific binding” value [5] was “No significant interactions”. It also gave a Kd [1, 8] of 185 µM and a Kd [1, 9] of 185 µM.
With lipoteichoic acid [LTA] the “NMR (binding confirmation, K d)” value [5] was “No significant interactions”, the “specific binding” value [5] was “No significant interactions” and the Kd [1, 8] was 200 µM. For the same molecule, the Kd [1, 9] was 200 µM.
